The results in this text go back to PubChem BioAssay (NCI).

Structures are written as SMILES. Where “and” joins values, the source holds several entries; their conditions need not be identical. Identical values can stand only once.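 Protocol summary: plate cells (96-well), add compound at 5 concentrations, incubate 48 h, interpolate endpoints linearly. GI50 marks 50% less growth. TGI: concentration producing complete growth inhibition.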 Bounds are passed on as bounds.

The test relates to MDA-MB-468 breast. Nature of the test: NCI tumour cell line growth inhibition, 48 h.
`c1ccc(-c2c(-c3ccccc3)[n+](Cc3ccc4ccccc4c3)c(-c3cccc4ccccc34)n2Cc2ccc3ccccc3c2)cc1`: the GI50 is 47.3 nM and the TGI was 281 nM.

As for `N#Cc1c(-c2ccccc2)cc(-c2ccccc2)n(CC(=O)NO)c1=O`, the GI50 is 3480 nM and the TGI was 14500 nM.

Consider `O=S1CCN(Cc2ccc(-c3ccc4ncnc(Nc5ccc(OCc6ccccc6)c(Cl)c5)c4c3)o2)CC1`, for which the GI50 was 44.9 nM and the TGI came to 376 nM.

Turning to `Cc1cc2c([nH]1)CSc1cc(S(=O)(=O)c3ccccc3)c(=O)[nH]c1-2`, the GI50 was 4530 nM and the TGI was over 26100 nM.

With `NC(N)=Nc1ccc(Oc2cccc(NC(N)=Nc3ccc(Cl)c(C(F)(F)F)c3)c2)cn1`, the GI50 is 1380 nM and the TGI was 3130 nM.

Regarding `FC(F)(F)c1ccc(-c2cnc(Cl)nc2NC2CCCCCC2)cc1`, the GI50 was 55800 nM and the TGI is over 100000 nM.

On to `COc1cc(C(=O)/C=C/c2ccc(OCCCCCC[P+](c3ccccc3)(c3ccccc3)c3ccccc3)cc2)cc(OC)c1OC`, for which the GI50 is 242 nM and the TGI amounted to 705 nM.

For the compound `COc1cc(/C=N/Nc2ncnc3[nH]ncc23)ccc1O`, the GI50 is 9900 nM and the TGI was over 25000 nM.

On to `CC(C)c1cc(C(=O)N2Cc3ccc(CN4CCN(C)CC4)cc3C2)c(O)cc1O`, for which the GI50 was 40.4 nM and 58.8 nM; the TGI was 3720 nM and 378 nM.

For the compound `COc1cc(-c2n[nH]nc2-c2ccc3c(c2)OCCO3)cc(OC)c1OC`, the GI50 is 14.7 nM and the TGI came to 30500 nM.

With `COCC(=O)Oc1cc(-c2ccc(C)cc2C)c(OC(=O)COC)c(-c2ccc(C)cc2C)c1`, the GI50 is 2790 nM and the TGI was determined as 14600 nM.

For `C=C(C)C(=O)Oc1ccc(N=Nc2ccc(C)cc2)ccc1=O`, the GI50 was 2800 nM and the TGI amounted to 11500 nM.

As for `O=C(CNc1nc(-c2cccc([N+](=O)[O-])c2)cs1)Nc1cccc([N+](=O)[O-])c1`, the GI50 was 1950 nM and the TGI was 4920 nM.

Take `CC(=O)c1nc2ccccc2n1CCN1CCN(C)CC1`: the GI50 is 1910 nM and the TGI was over 22300 nM.

On to `COc1ccc(/C=C(\C#N)c2ccc(OC)cc2)cc1`, for which the GI50 is 1610 nM and the TGI amounted to 35000 nM.

In the case of `O=S1CCN(Cc2ccc(-c3ccc4ncnc(Nc5ccc(OCc6cccc(F)c6)c(Cl)c5)c4c3)o2)CC1`, the GI50 was 5.68 nM and the TGI was found to be 46.6 nM.

Take `CCCC(c1nnnn1C1CCCCC1)N1CCN(C(=O)c2ccco2)CC1` (stereo unspecified): the GI50 is over 100000 nM and the TGI is over 100000 nM.

`COC1=CC(c2ccc[nH]2)=N/C1=C\c1[nH]c(C)c(C(=O)CCCCC(=O)NCc2ccccc2)c1C`: the GI50 was 2600 nM and the TGI is 7850 nM.

As to `Clc1ccc(CCC(Cn2ccnc2)Sc2c(Cl)cccc2Cl)cc1` (stereo unspecified), the GI50 is 2130 nM and the TGI worked out at 7490 nM.

On to `CCCCCCCCc1cc[n+](CC(=O)c2ccc(Br)cc2)cc1`, for which the GI50 was 1230 nM and the TGI worked out at 2690 nM.

As for `COc1ccc(C2CC(c3cc(Cl)c(C)cc3O)=NN2c2ccc(S(N)(=O)=O)cc2)cc1OC` (stereo unspecified), the GI50 was 2580 nM and the TGI is 9510 nM.

Turning to `Nc1cc2c([nH]c[n+]2CC#CCCl)c(SCC#CCCl)n1`, the GI50 was 734 nM and the TGI was determined as 2400 nM.

For the compound `Cn1cc(-c2nc3c(F)cc4[nH]ncc4c3c3c2CCCC3)c(C(F)(F)F)n1`, the GI50 was 6440 nM and the TGI was found to be 33100 nM.

Consider `COc1cc(-c2ccc3ncnc(NCc4ccccc4)c3c2)cnc1OC`, for which the GI50 is 1710 nM and the TGI was found to be 4960 nM.

On to `NCCOc1ncccc1/C=C1\c2ccccc2-c2ccc(F)cc21`, for which the GI50 was 1330 nM and the TGI came out at 2840 nM.

Take `Cn1ncc2c(Sc3ccc(Cl)cc3)ncnc21`: the GI50 is 20700 nM and the TGI was over 100000 nM.

With `O=C1/C(=C/c2ccc(Cl)cc2)COc2ccc(O)cc21`, the GI50 is 2060 nM and the TGI was 4550 nM.

With `O=C(CCl)Nc1ccc2c(c1)C(=O)c1ccccc1C2=O`, the GI50 was 1760 nM and the TGI stood at 4080 nM.

`Cc1cc(C)c(-c2cc(O)c(-c3c(C)cc(C)cc3C)cc2O)c(C)c1`: the GI50 is 1960 nM and the TGI was found to be 8470 nM.

As to `NS(=O)(=O)N(c1cc(C(F)(F)F)cc(C(F)(F)F)c1)C1CCN(Cc2ccc(F)cc2)CC1`, the GI50 was 1860 nM and the TGI worked out at 4760 nM.

For the compound `CCCCCCCCc1ccc(OCCOCC[N+](C)(C)CC)cc1` (tested in a mixture with another compound), the GI50 was 430 nM and the TGI was 2320 nM.

As for `C=C1C(=O)O[C@H]2[C@H]1CC/C(COC(=O)CCCCCCC(=O)OC/C1=C/CC[C@@]3(C)O[C@H]3[C@H]3OC(=O)C(=C)[C@@H]3CC1)=C\CC[C@@]1(C)O[C@@H]21`, the GI50 was 2160 nM and the TGI stood at 5440 nM.

In the case of `O=C(NCCCCNC(=O)OCc1ccc2c(Cl)cc(Cl)c(O)c2n1)OCc1ccc2c(Cl)cc(Cl)c(O)c2n1`, the GI50 is 532 nM and the TGI is over 100000 nM.

On to `Cc1cc(-c2ncc(-c3cccnc3)cc2/C=C/c2ccccc2)cnc1-c1cccnc1`, for which the GI50 was over 20500 nM and the TGI is over 100000 nM.

Turning to `COc1ccc(Nc2nccc(Nc3ccc4[nH]ncc4c3)n2)cc1`, the GI50 is 1700 nM and the TGI is 4550 nM.

With `COc1ccc(/C=C/c2nnc(/C=C/c3ccc(OC)c(OC)c3)o2)cc1OC`, the GI50 is 2880 nM and the TGI was 27500 nM.

As for `O=C1Nc2ccccc2/C1=C/C(=N/c1nnc(-c2ccccc2)s1)c1ccccc1`, the GI50 was 2710 nM and the TGI amounted to 8100 nM.

For `CCN(Cc1ccncc1)c1ccc(CO)c(Cl)c1`, the GI50 is 35.4 nM and the TGI stood at 161 nM.

Take `CCCCNCC(O)c1cc2c(Cl)cc(Cl)cc2c2cc(C(F)(F)F)ccc12` (stereo unspecified): the GI50 is 1590 nM and the TGI came out at 3030 nM.

`Cc1ccc(C(=O)Nc2ccc(CNCCN3CCNCC3)c(C(F)(F)F)c2)cc1C#Cc1cnc2cccnn12`: the GI50 is 1650 nM and the TGI is 3300 nM.

For `CCN1CCC(Oc2c(C#N)ncc3[nH]c4ncccc4c23)CC1`, the GI50 is 16000 nM and the TGI came to 33300 nM.

As for `COc1ccc2nc(NNC(=O)c3cnccn3)c3cccn3c2c1`, the GI50 was 287 nM and the TGI is 1960 nM.

Turning to `CC(C)(C)c1ccc(C(=O)Nc2sc3c(c2C#N)CCC(=O)C3)cc1`, the GI50 is 1330 nM and the TGI was 5280 nM.
